The values below come from patent US4820726A, “Oxaloamino substituted fluorinated resorcinol ethers and anti-allergic and anti-inflammatory use thereof” (Ciba-Geigy Corporation, priority 1985, dated 1989).

Assay [1] has as its system LTD4 -induced contractions of the guinea-pig ileum. Nature of the assay: Inhibiting effect on LTD4-induced contractions of the guinea-pig ileum. The class given is cell-based. The conditions noted are these: Cavia porcellus; isolated guinea-pig ileum, Tyrode solution, 38° C.; read-out: IC50, concentration which reduces LTD4 -induced contractions to 50% of the starting value. As for the experimental part: Thus, they have an antiallergic action based on a pronounced LTD4 -(leucotriene-D4)- and PAF-(PAF-acetoether)-antagonism.
Inhibiting effect on LTD4 -induced contractions of the guinea-pig ileum
Contractions are triggered off by synthetic LTD4 (leucotriene D4, potassium salt) on ileum segments which have been taken from guinea-pigs with a body weight of 300 to 400 g, fixed in an organ bath in Tyrode solution (38° C., gassing with 95% of O2 and 5% of CO2) and loaded with […], and the degree of the contractions is recorded. The degree of inhibition of these contractions to be attributed to the LTD4 -antagonistic action of the test substance is measured. The concentration, designated the IC50, of the test substance which reduces LTD4 -induced contractions to 50% of the starting value is determined.

For assay [2], the target named is phospholipase A2 from human leucocytes. Nature of the assay: In vitro test for the determination of the inhibition of phospholipase A2 from human leucocytes. The class given is biochemical. The conditions noted are these: enzyme from human leucocytes, 14C-oleic acid labelled E. coli phospholipids, pH 7, 37° C., 1 hour; read-out: IC50, concentration which causes an inhibition of 50% of the control activity of phospholipase A2. From the text:
In vitro test for the determination of the inhibition of phospholipase A2 from human leucocytes
Neutrophilic polymorphonuclear human leucocytes are isolated, starting from "buffy coats" by multi-stage fractional sedimentation and are deep-frozen.The phospholipase A2 is extracted from the cell suspension by homogenisation with the addition of ice-cold 0.36N H2 SO4 in 2M NaCl, and the supernatant obtained after centrifugation at 10,000 g is dialysed against sodium acetate buffer, pH 4.5.
To determine the enzyme activity, the enzyme (10-30 μg of protein) is incubated in 0.1M tris/HCl buffer, pH 7, with the addition of 1 mM CaCl2 and substrate consisting of phospholipids (2 μM), radioactively labelled biosynthetically with ^14 C-oleic acid, of Escherichia coli, at 37° C. for 1 hour. The reaction is stopped by addition of Dole reagent (isopropanol/heptane/1N H2 SO4 40:10:1, volume/volume) and the ^14 C-oleic acid released selectively by phospholipase A2 is extracted. The substrate also co-extracted is removed completely by filtration of the extract through a silica gel column. The ^14 C-oleic acid in the eluate is determined by radiometry.
To determine an inhibiting effect of test substances on the phospholipase A2, these are added to the incubation batch as solutions in water, dimethylsulfoxide (final concentration in the batch up to 5 vol %) or ethanol (final concentration in the batch up to 2.5 vol %). The action potency of the test substances is expressed by the IC50, i.e. the concentration which causes an inhibition of 50% of the control activity. The IC50 is determined graphically by plotting the percentage inhibition on the ordinate against the logarithm of the concentration (μM) on the abscissa.

In the case of `CCCc1c(OCC(O)COc2cccc(NC(=O)C(=O)O)c2C#N)ccc(C(C)=O)c1O` (centres unmarked) [N-{3-[3-(4-acetyl-3-hydroxy-2-propyl-phenoxy)-2-hydroxypropoxy]-2-cyano-phenyl}-oxamic acid, reference compound], the IC50 was 0.087 µM in assay [1] and over 100 µM in assay [2].
Regarding `CC(=O)c1ccc(OCCCOc2cc(NC(=O)c3nnn[nH]3)c(C)cc2Br)c(CCC(F)(F)F)c1O` [N-{{3-{3-[4-acetyl-3-hydroxy-2-(3,3,3-trifluoropropyl)phenoxy]-propoxy}-4-bromo-6-methyl-phenyl}}-1H-tetrazole-5-carboxamide], the figures for the IC50 in assay [1] and in assay [2] were 0.01 µM and 12 µM, respectively.
With `CC(=O)c1ccc(OCCCOc2cc(NC(=O)c3nnn[nH]3)c(C)cc2Cl)c(CCC(F)(F)F)c1O` [N-{{3-{3-[4-acetyl-3-hydroxy-2-(3,3,3-trifluoropropyl)-phenoxy]-propoxy}-4-chloro-6-methyl-phenyl}}-1H-tetrazole-5-carboxamide], in assay [2], the IC50 amounted to 13 µM.
